# In US12133855B2, “Lipid-like nanocomplexes and uses thereof” (Trustees of Tufts College, priority 2018, dated 2024):
# Columns and labels:
# HeLa cells = assay: Internalization of calcein loaded nanoparticles; assay type: cell-based; details: 8 h of exposure
# Protocol: The internalization kinetics and efficiencies of OCholB LNPs were then studied using NR loaded LNPs and HeLa cells. […] Next, all of the NR delivery efficiencies of eight OCholB LNPs were determined after 8 h of exposure. […] Representative fluorescent images of NR/LNPs (NR/75-OCholB, NR/76-OCholB and NR/77-OCholB) treated HeLa cells are shown in FIG. 12D, from which it is easily observed that NR was delivered into the cells and mainly distributed in cytoplasm, by OCholB LNPs. Next, the internalization of negatively charged hydrophilic fluorescent dye, calcein, was studied. […] Next, the use of OCholB LNPs for the intracellular delivery of macromolecular cargo was explored, using fluorescent recombinant (−30)GFP-Cre protein and HeLa-DsRed cells as the model system. […] Delivery efficiency was tested at a range of (−30)GFP-Cre protein concentrations (25, 50 and 100 nM), with a consistent lipid/protein ratio (i.e., delivery with the final lipid concentration of 1.7, 3.3, and 6.6 μg mL^−1 respectively). 33.2%, 43.8% and 74% of GFP positive (GFP^+) cells were recorded for (−30)GFP-Cre/Lpf2k treated cells with the concentration of (−30)GFP-Cre 25 nM, 50 nM and 100 nM, respectively. […]
# Ai14 mice = assay: In vivo genome editing, intravenous injection, tdTomato expression; parameters: species or system mouse; details: day 14
# Protocol: Similar to the in vitro transfection study, lipidoid nanoparticles were prepared for mRNA or protein loading and in vivo delivery. Ai14 mice were housed in a temperature and humidity controlled facility with a 12 h light/dark cycle. Three mice in each group were injected (intravenously or intramuscularly) with Cre mRNA-loaded or (−30)GFP-Cre protein-loaded LNPs formulations. Organs including heart, liver, spleen, lung and kidney from all groups were collected at day 10 (intramuscular injection) or 14 (intravenous injection) after injection. The tissues were fixed overnight in 4% paraformaldehyde (PFA) and dehydrated in 30% sucrose before being froze in OCT and sectioned into 10-15 μm slices. The slices were then collected and stained with DAPI for fluorescence imaging (BZ-X Analyzer fluorescence microscopy).
# Cre-loxP system and transgenic Ai14 mouse model were used in the in vivo genome editing study. […] When the Cre recombinase mediated gene reorganization occurs, the STOP cassette could be removed, resulting in the expression of fluorescent tdTomato reporter protein.
# The OCholB LNPs was further investigated if they can induce successful gene editing in vivo through a systemic administration pathway. At first, Ai14 mice (n=3) were injected through tail vein (intravenous (IV) injection) with (−30)GFP-Cre protein loaded LNPs at day 1 and 5 (50 μg protein for each injection; 100 μg in total), then sacrificed at day 14 for analysis (FIG. 17C). […] The heart, liver, spleen, lung and kidney from each group were collected and analyzed. […] Like most intravenous nano-therapeutics, the (−30)GFP-Cre protein complexed OCholB nanoparticles injected through tail vein would travel first to the heart, and from there directly to the lung. The nanoparticle formulations (which may have complexed with serum proteins) could be easily trapped in the vasculature structures in the capillary bed of the lung, delaying or inhibiting the redistribution of LNPs to the liver, spleen and other organs. During the in vivo transport and redistribution process, some of the protein loaded LNPs may successfully enter into the cells in lung or spleen to induce the genome editing and tdTomato expression cascade. Degradation, aggregation and/or immune cells sequestration of the cargo protein and carrier LNPs would dramatically reduce or perhaps even prohibit genome editing events.
# Next, in vivo systemic mRNA delivery using OCholB LNPs was tested using a similar intravenous injection protocol (FIG. 17C). Cre mRNA loaded 76-OCholB LNPs were injected at day 1 and day 5 (10 μg mRNA for each injection; 20 μg in total), and mice were sacrificed at day 14. All the major organs (heart, liver, spleen, lung and kidney) were collected and analyzed. […]
# [1] = (−30)GFP-Cre loaded, IV day 1 and 5, 50 μg protein each
# [2] = Cre mRNA loaded, IV day 1 and 5, 10 μg mRNA each
smiles,measurement,setting,value
CCN(CC)CCN(CCC(=O)OCCSSCCNC(=O)OC1CCC2(C)C(=CCC3C2CCC2(C)C(C(C)CCCC(C)C)CCC32)C1)CCC(=O)OCCSSCCNC(=O)OC1CCC2(C)C(=CCC3C2CCC2(C)C(C(C)CCCC(C)C)CCC32)C1 (centres unmarked) [Lipidoid 75-OCholB],mean fluorescent intensity vs free calcein-treated cells,HeLa cells,~9.4 folds
CC(C)CCCC(C)C1CCC2C3CC=C4CC(OC(=O)NCCSSCCOC(=O)CCN(CCC(=O)OCCSSCCNC(=O)OC5CCC6(C)C(=CCC7C6CCC6(C)C(C(C)CCCC(C)C)CCC76)C5)CCN5CCCC5)CCC4(C)C3CCC12C (centres unmarked) [Lipidoid 76-OCholB],genome editing efficacy in the spleen,Ai14 mice; [1],Relative high genome editing efficacy
same,tdTomato positive cells in the spleen,Ai14 mice; [2],significant amount of tdTomato positive cells
same,"tdTomato signals in other organs (heart, liver, lung, kidney)",Ai14 mice; [2],positive signals were not found
CC(C)CCCC(C)C1CCC2C3CC=C4CC(OC(=O)NCCSSCCOC(=O)CCN(CCCN(C)C)CCC(=O)OCCSSCCNC(=O)OC5CCC6(C)C(=CCC7C6CCC6(C)C(C(C)CCCC(C)C)CCC76)C5)CCC4(C)C3CCC12C (centres unmarked) [Lipidoid 80-OCholB],genome editing efficacy in the lung,Ai14 mice; [1],Relative high genome editing efficacy
